Test results taken from patent publication US20230233650A1, “NOVEL FATTY ACID MODIFIED UROCORTIN 2 DERIVATIVES AND THE USES THEREOF” (Novo Nordisk A/S, priority 2021, published 2023).
Numbered stars: 1 amine (or outer) side, 2 acyl side, 3 side chain; on linkers, the order of the positions; unused ones are H or OH. Side chains are listed from the residue outwards. Peptide text beside a SMILES is read from it. * marks the point of attachment. C20 diacid = O=C(O)CCCCCCCCCCCCCCCCCCC(=O)*; γGlu = O=C(O)[C@H](CCC(=O)[*:2])N[*:1]; AEEA = NCCOCCOCC(=O)O

Experiment: Pharmacokinetic study in minipigs after intravenous administration
Assay type: in vivo
Settings: female, Göttingen, minipig, plasma, i.v., 2 nmol/kg, harmonic mean, read-out: Terminal half-life (converted)
Description: The purpose of this investigation was to determine the in vivo half-life of the compounds of the invention after i.v. administration to minipigs using a pharmacokinetic (PK) study in Göttingen Minipigs assessing terminal half-life. The expression ‘terminal half-life’ as used herein, and means the time period required to reduce the plasma concentration by 50%, measured after the initial distribution phase.
Animals and housing: Female Göttingen Minipigs, weighing approximately 15-25 kg, were obtained from Ellegaard Minipigs, Dalmose Denmark. The minipigs were housed individually in the Animal Unit at BioAdvice A/S, ∅lstykke Denmark (later Minerva Imaging A/S) and were fed restrictedly twice daily with Altromin 9033 (Chr. Petersen A/S, Ringsted, Denmark). […]
Administration of peptides and dosing solutions: There were no food restrictions during the study and the animals had ad libitum access to water during the whole study period. […] The plasma samples were analysed as described below.
Quantitative Assay for Plasma Samples: The test compound was assayed in plasma by turbulent flow chromatography coupled to liquid chromatography mass spectrometric (LCMS) detection. The selectivity of the method allowed various test compounds to be quantitated in one sample, e.g. cassette dosing. […]

half-life [h]	SMILES
96	CC[C@H](C)[C@H](NC(=O)[C@H](CCC(=O)O)NC(=O)[C@H](C)NC(=O)[C@H](CC(N)=O)NC(=O)[C@@H](NC(=O)[C@@H](NC(=O)[C@H](C)NC(=O)[C@H](CCC(N)=O)NC(=O)[C@H](CCC(=O)O)NC(=O)[C@H](CCCNC(=N)N)NC(=O)[C@H](C)NC(=O)[C@H](C)NC(=O)[C@H](CCCNC(=N)N)NC(=O)[C@H](C)NC(=O)[C@H](CCCNC(=N)N)NC(=O)[C@H](C)NC(=O)[C@H](CCC(N)=O)NC(=O)[C@H](CCC(=O)O)NC(=O)[C@H](CC(C)C)NC(=O)[C@H](CC(C)C)NC(=O)[C@@H](NC(=O)[C@H](CCC(N)=O)NC(=O)[C@H](CC(C)C)NC(=O)[C@H](CC(C)C)NC(=O)CNC(=O)[C@@H](NC(=O)[C@@H]1CCCN1C(=O)[C@@H](NC(=O)[C@H](CC(=O)O)NC(=O)[C@H](CC(C)C)NC(=O)[C@H](CO)NC(=O)[C@H](CC(C)C)NC(=O)[C@@H](NC(=O)[C@@H](NC(=O)[C@@H](N)CCCCNC(=O)COCCOCCNC(=O)COCCOCCNC(=O)CC[C@H](NC(=O)CC[C@H](NC(=O)CC[C@H](NC(=O)CCCCCCCCCCCCCCCCCCC(=O)O)C(=O)O)C(=O)O)C(=O)O)[C@@H](C)CC)C(C)C)C(C)C)[C@@H](C)CC)[C@@H](C)CC)[C@@H](C)O)[C@@H](C)O)C(=O)N[C@@H](CC(C)C)C(=O)N[C@@H](C)C(=O)N[C@@H](CCC(=O)O)C(=O)N[C@H](C(N)=O)C(C)C [Compound 3] (H-K([AEEA-AEEA-γGlu-γGlu-γGlu-C20 diacid])IVLSLDVPIGLLQILLEQARARAAREQATTNAEILAEV-NH2)
103	CC[C@H](C)[C@H](NC(=O)[C@H](CCC(=O)O)NC(=O)[C@H](C)NC(=O)[C@H](CC(N)=O)NC(=O)[C@@H](NC(=O)[C@@H](NC(=O)[C@H](C)NC(=O)[C@H](CCC(N)=O)NC(=O)[C@H](CCC(=O)O)NC(=O)[C@H](CCCNC(=N)N)NC(=O)[C@H](C)NC(=O)[C@H](C)NC(=O)[C@H](CCCNC(=N)N)NC(=O)[C@H](C)NC(=O)[C@H](CCCNC(=N)N)NC(=O)[C@H](C)NC(=O)[C@H](CCC(N)=O)NC(=O)[C@H](CCC(=O)O)NC(=O)[C@H](CC(C)C)NC(=O)[C@H](CC(C)C)NC(=O)[C@@H](NC(=O)[C@H](CCC(N)=O)NC(=O)[C@H](CC(C)C)NC(=O)[C@H](CC(C)C)NC(=O)CNC(=O)[C@@H](NC(=O)[C@@H]1CCCN1C(=O)[C@@H](NC(=O)[C@H](CC(=O)O)NC(=O)[C@H](CC(C)C)NC(=O)[C@H](CO)NC(=O)[C@H](CC(C)C)NC(=O)[C@@H](NC(=O)[C@@H](NC(=O)[C@@H](N)CCCCNC(=O)COCCOCCNC(=O)COCCOCCNC(=O)CC[C@H](NC(=O)CC[C@H](NC(=O)CC[C@H](NC(=O)CCCCCCCCCCCCCCCCCCC(=O)O)C(=O)O)C(=O)O)C(=O)O)[C@@H](C)CC)C(C)C)C(C)C)[C@@H](C)CC)[C@@H](C)CC)[C@@H](C)O)[C@@H](C)O)C(=O)N[C@@H](CC(C)C)C(=O)N[C@@H](CCC(=O)O)C(=O)N[C@@H](CCCNC(=N)N)C(=O)N[C@H](C(N)=O)C(C)C [Compound 4] (H-K([AEEA-AEEA-γGlu-γGlu-γGlu-C20 diacid])IVLSLDVPIGLLQILLEQARARAAREQATTNAEILERV-NH2)
